Consider 17 compounds from PubChem BioAssay AID344 (DTP/NCI, 2004).

For this assay, the system named is mice, LPC-1 plasma cell tumor ip, median survival T/C. The assay is described as follows: NCI In Vivo Anticancer Drug Screen. Data for tumor model Lieberman Plasma Cell No. 1 (LPC-1) (intraperitoneal) in unknown mice. Particulars: endpoint: median survival time, higher = longer survival. How it is done: The antitumor activity of compounds was measured in mice bearing transplantable tumors. Survival or tumor size were measured and the results are expressed as the measurement made in the treated group (T) divided by the measurement made in the vehicle treated control group (C). The tumor model used in this assay is Lieberman Plasma Cell No. 1 (LPC-1) (intraperitoneal) in unknown mice

Setting [1] is: dose: 8.4 mg/kg/injection, schedule: Q01DX028 (sc), vehicle: saline.
The mark [2] stands for this setting: dose: 14.0 mg/kg/injection, schedule: Q01DX028 (sc), vehicle: saline.
The mark [3] stands for this setting: dose: 39.0 mg/kg/injection, schedule: Q01DX028 (sc), vehicle: saline.
Setting [4] is: dose: 65.0 mg/kg/injection, schedule: Q01DX028 (sc), vehicle: saline.
Where [5] appears, read: dose: 33.0 mg/kg/injection, schedule: Q01DX028 (sc), vehicle: carboxymethylcellulose (CMC).
Setting [6] is: dose: 75.0 mg/kg/injection, schedule: Q01DX028 (sc), vehicle: carboxymethylcellulose (CMC).
Where [7] appears, read: dose: 7.5 mg/kg/injection, schedule: Q01DX028 (sc), vehicle: saline.
Setting [8] is: dose: 15.0 mg/kg/injection, schedule: Q01DX028 (sc), vehicle: saline.

Several values for one entry are separate records, joined by “and”; a condition that tells them apart may be missing. Identical values can stand only once. Toxic doses and inconclusive results are not listed.

`O=C(O)c1[nH]c(=O)[nH]c(=O)c1F`: the T/C reads like this: (dose: 1.8 mg/kg/injection, schedule: Q01DX028 (sc), vehicle: saline) 180 % of control; (dose: 3.0 mg/kg/injection, schedule: Q01DX028 (sc), vehicle: saline) 123 % of control; (dose: 5.0 mg/kg/injection, schedule: Q01DX028 (sc), vehicle: saline) 119 % of control; under setting [1], 97 % of control and 114 % of control; under setting [2], 93 % of control and 104 % of control; (dose: 23.0 mg/kg/injection, schedule: Q01DX028 (sc), vehicle: saline) 95 % of control and 102 % of control. The T/C runs as follows: under setting [3], 93 % of control; under setting [4], 88 % of control.
Turning to `Cc1cc(N(CCCl)CCCl)ccc1C=Nc1ccccc1-c1ccccc1`, the T/C (dose: 23.0 mg/kg/injection, schedule: Q01DX015 (sc), vehicle: carboxymethylcellulose (CMC)) was 92 % of control and the T/C (dose: 180.0 mg/kg/injection, schedule: Q01DX015 (sc), vehicle: carboxymethylcellulose (CMC)) is 102 % of control.
On to `O=NN(CCCl)C(=O)NC1CCCCC1`, for which the T/C by setting is: under setting [5], 111 % of control; under setting [6], 102 % of control.
Turning to `CN(N=O)C(N)=O`, the T/C is, setting by setting: under setting [1], 114 % of control; under setting [2], 150 % of control; under setting [3], 116 % of control; under setting [4], 100 % of control.
Regarding `CCN(CC)c1ccc2cc3ccc(=[N+](CC)CC)cc-3oc2c1`, the T/C reads like this: (dose: 1.0 mg/kg/injection, schedule: Q01DX028 (sc), vehicle: methylcellulose (MC)) 97 % of control; (dose: 2.0 mg/kg/injection, schedule: Q01DX028 (sc), vehicle: methylcellulose (MC)) 93 % of control; (dose: 4.0 mg/kg/injection, schedule: Q01DX028 (sc), vehicle: methylcellulose (MC)) 89 % of control; (dose: 8.0 mg/kg/injection, schedule: Q01DX028 (sc), vehicle: methylcellulose (MC)) 87 % of control.
Take `CO[C@@]12[C@H](COC(N)=O)C3=C(C(=O)C(C)=C(N)C3=O)N1C[C@@H]1N[C@@H]12`: the T/C (dose: 0.25 mg/kg/injection, schedule: Q01DX028 (sc), vehicle: saline) was 191 % of control; the T/C (dose: 0.5 mg/kg/injection, schedule: Q01DX028 (sc), vehicle: saline) was 161 % of control; the T/C (dose: 1.0 mg/kg/injection, schedule: Q01DX028 (sc), vehicle: saline) was 111 % of control; the T/C (dose: 2.0 mg/kg/injection, schedule: Q01DX028 (sc), vehicle: saline) was 100 % of control.
On to `NC(CSCc1ccc(N(CCCl)CCCl)cc1)C(=O)O` (stereo unspecified), for which the T/C was 100 % of control (dose: 3.75 mg/kg/injection, schedule: Q01DX028 (sc), vehicle: saline); 111 % of control under setting [7]; 102 % of control under setting [8]; 122 % of control (dose: 30.0 mg/kg/injection, schedule: Q01DX028 (sc), vehicle: saline).
For `CCC(CCC(C)C1CCC2C3CC=C4CC(OC(=O)CCC(=O)O)CCC4(C)C3CCC12C)C(C)C` (stereo unspecified), the T/C is 102 % of control (dose: 100.0 mg/kg/injection, schedule: Q01DX028 (sc), vehicle: water) and 100 % of control (dose: 400.0 mg/kg/injection, schedule: Q01DX028 (sc), vehicle: water).
Consider `CO[C@H](C(=O)[C@@H](O)[C@@H](C)O)[C@@H]1Cc2cc3cc(OC4CC(OC5CC(O)C(O)C(C)O5)C(O)C(C)O4)c(C)c(O)c3c(O)c2C(=O)[C@H]1OC1CC(OC2CC(OC3CC(C)(O)C(O)C(C)O3)C(O)C(C)O2)C(O)C(C)O1` (stereo partly specified), for which the T/C runs as follows: (dose: 0.2 mg/kg/injection, schedule: Q01DX028 (sc), vehicle: saline) 100 % of control; (dose: 0.4 mg/kg/injection, schedule: Q01DX028 (sc), vehicle: saline) 97 % of control.
For the compound `CCOC(N)=O`, the T/C was 98 % of control (dose: 128.0 mg/kg/injection, schedule: Q01DX028 (sc), vehicle: other); 210 % of control (dose: 400.0 mg/kg/injection, schedule: Q01DX028 (sc), vehicle: saline); 175 % of control (dose: 512.0 mg/kg/injection, schedule: Q01DX028 (sc), vehicle: other).
For `O=NN(CCF)C(=O)NC1CCCCC1`, the T/C under setting [5] is 97 % of control.
For the compound `C/C(=N\N=C(N)N)c1ccc(NC(=O)Nc2ccc(/C(C)=N/N=C(N)N)cc2)cc1`, the T/C is, setting by setting: (dose: 10.0 mg/kg/injection, schedule: Q01DX028 (sc), vehicle: carboxymethylcellulose (CMC)) 94 % of control; (dose: 20.0 mg/kg/injection, schedule: Q01DX028 (sc), vehicle: carboxymethylcellulose (CMC)) 102 % of control; (dose: 40.0 mg/kg/injection, schedule: Q01DX028 (sc), vehicle: carboxymethylcellulose (CMC)) 105 % of control; (dose: 80.0 mg/kg/injection, schedule: Q01DX028 (sc), vehicle: carboxymethylcellulose (CMC)) 100 % of control.
Take `COc1ccc2c(c1)C(C)=CC(C)(C)N2`: the T/C (dose: 200.0 mg/kg/injection, schedule: Q01DX028 (sc), vehicle: steriod suspending solution) was 110 % of control and the T/C (dose: 400.0 mg/kg/injection, schedule: Q01DX028 (sc), vehicle: steriod suspending solution) is 154 % of control.
On to `CS(=O)(=O)OCCC(=O)NCNC(=O)CCOS(C)(=O)=O`, for which the T/C reads like this: (dose: 6.25 mg/kg/injection, schedule: Q01DX028 (sc), vehicle: carboxymethylcellulose (CMC)) 184 % of control; (dose: 12.5 mg/kg/injection, schedule: Q01DX012 (sc), vehicle: carboxymethylcellulose (CMC)) 105 % of control; (dose: 12.5 mg/kg/injection, schedule: Q01DX028 (sc), vehicle: carboxymethylcellulose (CMC)) 223 % of control and 276 % of control; (dose: 25.0 mg/kg/injection, schedule: Q01DX012 (sc), vehicle: carboxymethylcellulose (CMC)) 328 % of control; (dose: 25.0 mg/kg/injection, schedule: Q01DX028 (sc), vehicle: carboxymethylcellulose (CMC)) 200 % of control and 230 % of control; (dose: 50.0 mg/kg/injection, schedule: Q01DX012 (sc), vehicle: carboxymethylcellulose (CMC)) 110 % of control. Moreover, the T/C by setting is: (dose: 50.0 mg/kg/injection, schedule: Q01DX028 (sc), vehicle: carboxymethylcellulose (CMC)) 107 % of control and 121 % of control; under setting [6], 87 % of control.
With `CNNCc1ccc(C(=O)NC(N)=O)cc1`, the T/C was 100 % of control (dose: 50.0 mg/kg/injection, schedule: Q01DX028 (sc), vehicle: saline); 105 % of control (dose: 100.0 mg/kg/injection, schedule: Q01DX028 (sc), vehicle: saline); 102 % of control (dose: 200.0 mg/kg/injection, schedule: Q01DX028 (sc), vehicle: saline).
In the case of `Cn1c2ccccc2c(=O)c2c(O)cc3c(c21)C=C(Br)C(C)(C)O3`, the T/C (dose: 9.38 mg/kg/injection, schedule: Q01DX028 (sc), vehicle: carboxymethylcellulose (CMC)) was 97 % of control; the T/C (dose: 18.75 mg/kg/injection, schedule: Q01DX028 (sc), vehicle: carboxymethylcellulose (CMC)) is 97 % of control; the T/C (dose: 37.5 mg/kg/injection, schedule: Q01DX028 (sc), vehicle: carboxymethylcellulose (CMC)) is 107 % of control; the T/C under setting [6] was 97 % of control; the T/C (dose: 150.0 mg/kg/injection, schedule: Q01DX028 (sc), vehicle: carboxymethylcellulose (CMC)) was 95 % of control.
For `NC(CSC(c1ccccc1)(c1ccccc1)c1ccccc1)C(=O)O` (stereo unspecified), the T/C is, setting by setting: under setting [7], 102 % of control; under setting [8], 105 % of control; (dose: 60.0 mg/kg/injection, schedule: Q01DX028 (sc), vehicle: saline) 105 % of control.
